Measurements published in paper PMC12454493, “Insight on novel sulfamoylphenyl pyrazole derivatives as anticancer carbonic anhydrase inhibitors” (Molecular Diversity, 2024).

Key:
T-47D = experiment: NCI-60 one-dose SRB screen (Breast Cancer); type: cell-based; conditions: Homo sapiens, T47D, single dose 10 µM, 48 h, read-out: Growth inhibition percent (GI %)
MCF-7 = experiment: NCI-60 one-dose SRB screen (Breast Cancer); type: cell-based; conditions: Homo sapiens, MCF7, single dose 10 µM, 48 h, read-out: Growth inhibition percent (GI %)
MDA-MB-231/ATCC = experiment: NCI-60 one-dose SRB screen (Breast Cancer); type: cell-based; conditions: Homo sapiens, single dose 10 µM, 48 h, read-out: Growth inhibition percent (GI %)
HS 578T = experiment: NCI-60 one-dose SRB screen (Breast Cancer); type: cell-based; conditions: Homo sapiens, single dose 10 µM, 48 h, read-out: Growth inhibition percent (GI %)
BT-549 = experiment: NCI-60 one-dose SRB screen (Breast Cancer); type: cell-based; conditions: Homo sapiens, single dose 10 µM, 48 h, read-out: Growth inhibition percent (GI %)
MDA-MB-468 = experiment: NCI-60 one-dose SRB screen (Breast Cancer); type: cell-based; conditions: Homo sapiens, single dose 10 µM, 48 h, read-out: Growth inhibition percent (GI %)
M14 = experiment: NCI-60 one-dose SRB screen (Melanoma); type: cell-based; conditions: Homo sapiens, single dose 10 µM, 48 h, read-out: Growth inhibition percent (GI %)
SK-MEL-5 = experiment: NCI-60 one-dose SRB screen (Melanoma); type: cell-based; conditions: Homo sapiens, single dose 10 µM, 48 h, read-out: Growth inhibition percent (GI %)
MALME-3M = experiment: NCI-60 one-dose SRB screen (Melanoma); type: cell-based; conditions: Homo sapiens, single dose 10 µM, 48 h, read-out: Growth inhibition percent (GI %)
SK-MEL-28 = experiment: NCI-60 one-dose SRB screen (Melanoma); type: cell-based; conditions: Homo sapiens, single dose 10 µM, 48 h, read-out: Growth inhibition percent (GI %)
LOX IMVI = experiment: NCI-60 one-dose SRB screen (Melanoma); type: cell-based; conditions: Homo sapiens, single dose 10 µM, 48 h, read-out: Growth inhibition percent (GI %)
MDA-MB-435 = experiment: NCI-60 one-dose SRB screen (Melanoma); type: cell-based; conditions: Homo sapiens, single dose 10 µM, 48 h, read-out: Growth inhibition percent (GI %)
UACC-257 = experiment: NCI-60 one-dose SRB screen (Melanoma); type: cell-based; conditions: Homo sapiens, single dose 10 µM, 48 h, read-out: Growth inhibition percent (GI %)
SK-MEL-2 = experiment: NCI-60 one-dose SRB screen (Melanoma); type: cell-based; conditions: Homo sapiens, single dose 10 µM, 48 h, read-out: Growth inhibition percent (GI %)
UACC-62 = experiment: NCI-60 one-dose SRB screen (Melanoma); type: cell-based; conditions: Homo sapiens, single dose 10 µM, 48 h, read-out: Growth inhibition percent (GI %)
DU-145 = experiment: NCI-60 one-dose SRB screen (Prostate Cancer); type: cell-based; conditions: Homo sapiens, single dose 10 µM, 48 h, read-out: Growth inhibition percent (GI %)
PC-3 = experiment: NCI-60 one-dose SRB screen (Prostate Cancer); type: cell-based; conditions: Homo sapiens, single dose 10 µM, 48 h, read-out: Growth inhibition percent (GI %)
OVCAR-8 = experiment: NCI-60 one-dose SRB screen (Ovarian cancer); type: cell-based; conditions: Homo sapiens, single dose 10 µM, 48 h, read-out: Growth inhibition percent (GI %)
IGROV1 = experiment: NCI-60 one-dose SRB screen (Ovarian cancer); type: cell-based; conditions: Homo sapiens, IGROV-1, single dose 10 µM, 48 h, read-out: Growth inhibition percent (GI %)
OVCAR-3 = experiment: NCI-60 one-dose SRB screen (Ovarian cancer); type: cell-based; conditions: Homo sapiens, single dose 10 µM, 48 h, read-out: Growth inhibition percent (GI %)
NCI/ADR-RES = experiment: NCI-60 one-dose SRB screen (Ovarian cancer); type: cell-based; conditions: Homo sapiens, single dose 10 µM, 48 h, read-out: Growth inhibition percent (GI %)
OVCAR-4 = experiment: NCI-60 one-dose SRB screen (Ovarian cancer); type: cell-based; conditions: Homo sapiens, single dose 10 µM, 48 h, read-out: Growth inhibition percent (GI %)
ACHN = experiment: NCI-60 one-dose SRB screen (Renal Cancer); type: cell-based; conditions: Homo sapiens, single dose 10 µM, 48 h, read-out: Growth inhibition percent (GI %)
CAKI-1 = experiment: NCI-60 one-dose SRB screen (Renal Cancer); type: cell-based; conditions: Homo sapiens, single dose 10 µM, 48 h, read-out: Growth inhibition percent (GI %)
UO-31 = experiment: NCI-60 one-dose SRB screen (Renal Cancer); type: cell-based; conditions: Homo sapiens, single dose 10 µM, 48 h, read-out: Growth inhibition percent (GI %)
RXF 393 = experiment: NCI-60 one-dose SRB screen (Renal Cancer); type: cell-based; conditions: Homo sapiens, single dose 10 µM, 48 h, read-out: Growth inhibition percent (GI %)
TK-10 = experiment: NCI-60 one-dose SRB screen (Renal Cancer); type: cell-based; conditions: Homo sapiens, single dose 10 µM, 48 h, read-out: Growth inhibition percent (GI %)
786-0 = experiment: NCI-60 one-dose SRB screen (Renal Cancer); type: cell-based; conditions: Homo sapiens, single dose 10 µM, 48 h, read-out: Growth inhibition percent (GI %)
A498 = experiment: NCI-60 one-dose SRB screen (Renal Cancer); type: cell-based; conditions: Homo sapiens, single dose 10 µM, 48 h, read-out: Growth inhibition percent (GI %)
SN12C = experiment: NCI-60 one-dose SRB screen (Renal Cancer); type: cell-based; conditions: Homo sapiens, single dose 10 µM, 48 h, read-out: Growth inhibition percent (GI %)
KM12 = experiment: NCI-60 one-dose SRB screen (Colon Cancer); type: cell-based; conditions: Homo sapiens, single dose 10 µM, 48 h, read-out: Growth inhibition percent (GI %)
COLO 205 = experiment: NCI-60 one-dose SRB screen (Colon Cancer); type: cell-based; conditions: Homo sapiens, single dose 10 µM, 48 h, read-out: Growth inhibition percent (GI %)
SW-620 = experiment: NCI-60 one-dose SRB screen (Colon Cancer); type: cell-based; conditions: Homo sapiens, single dose 10 µM, 48 h, read-out: Growth inhibition percent (GI %)
HCT-116 = experiment: NCI-60 one-dose SRB screen (Colon Cancer); type: cell-based; conditions: Homo sapiens, single dose 10 µM, 48 h, read-out: Growth inhibition percent (GI %)
HCC-2998 = experiment: NCI-60 one-dose SRB screen (Colon Cancer); type: cell-based; conditions: Homo sapiens, single dose 10 µM, 48 h, read-out: Growth inhibition percent (GI %)
HT29 = experiment: NCI-60 one-dose SRB screen (Colon Cancer); type: cell-based; conditions: Homo sapiens, HT-29, single dose 10 µM, 48 h, read-out: Growth inhibition percent (GI %)
HCT-15 = experiment: NCI-60 one-dose SRB screen (Colon Cancer); type: cell-based; conditions: Homo sapiens, single dose 10 µM, 48 h, read-out: Growth inhibition percent (GI %)
CCRF-CEM = experiment: NCI-60 one-dose SRB screen (Leukemia); type: cell-based; conditions: Homo sapiens, single dose 10 µM, 48 h, read-out: Growth inhibition percent (GI %)
MOLT-4 = experiment: NCI-60 one-dose SRB screen (Leukemia); type: cell-based; conditions: Homo sapiens, single dose 10 µM, 48 h, read-out: Growth inhibition percent (GI %)
RPMI-8226 = experiment: NCI-60 one-dose SRB screen (Leukemia); type: cell-based; conditions: Homo sapiens, single dose 10 µM, 48 h, read-out: Growth inhibition percent (GI %)
SR = experiment: NCI-60 one-dose SRB screen (Leukemia); type: cell-based; conditions: Homo sapiens, single dose 10 µM, 48 h, read-out: Growth inhibition percent (GI %)
HL-60(TB) = experiment: NCI-60 one-dose SRB screen (Leukemia); type: cell-based; conditions: Homo sapiens, single dose 10 µM, 48 h, read-out: Growth inhibition percent (GI %)
K-562 = experiment: NCI-60 one-dose SRB screen (Leukemia); type: cell-based; conditions: Homo sapiens, K562, single dose 10 µM, 48 h, read-out: Growth inhibition percent (GI %)
hCA XII = hCA XII (Homo sapiens, UniProt O43570); experiment: CA inhibitory activity, spectrophotometric p-NPA assay; type: biochemical; conditions: p-NPA substrate, pH 7.5, 25 °C, triplicate; read-out: IC50 (µM) ± SD hCA XII
Chain of hCA XII (O43570 25-354): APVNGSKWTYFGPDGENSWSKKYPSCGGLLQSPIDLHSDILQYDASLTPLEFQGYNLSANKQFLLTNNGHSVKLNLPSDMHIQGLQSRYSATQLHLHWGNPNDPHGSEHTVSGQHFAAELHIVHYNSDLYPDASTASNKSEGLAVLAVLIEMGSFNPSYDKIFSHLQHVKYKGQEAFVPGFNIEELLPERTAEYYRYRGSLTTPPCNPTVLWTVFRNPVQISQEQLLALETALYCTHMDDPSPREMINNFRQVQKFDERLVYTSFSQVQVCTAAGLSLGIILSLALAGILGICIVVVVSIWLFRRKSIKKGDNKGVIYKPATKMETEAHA
Description: The software used to calculate CA IC50 along with statistical analysis of the results is GraphPad Prism 9.00. Results were estimated by using one-way ANOVA and the Bonferroni’s multiple comparisons posthoc test was performed (P < 0.05) [46]
Carbonic anhydrase inhibitory activity:
The spectrophotometric assay was conducted in HEPES-Tris buffer, NaCl of pH 7.5 (20mM) at 25◦C. Each inhibitory well-consisted of 50 μL of assay buffer solution, 20 μL of hCA enzyme solution (20 ng/μL in Assay Buffer), and 50 μL of test compound in HPLC grade DMSO (maintain 10% of the final concentration). The mixture solution was
Substrate p-nitrophenyl acetate (p-NPA) (0.7mM) was prepared in HPLC grade methanol and the reaction was started by adding 20 μL to a well in a 96-well-plate. The amount of product formed was measured for 30 min continuously at 1 min intervals at 400 nm in a 96-well-plate using xMARK microplate spectrophotometer, Bio-Rad (USA). The activity of the controlled compound was taken as 100%. All experiments were carried out in triplicates of each used concentration, and results are represented as a

## NC(=S)NNC(=O)c1cn(-c2ccc(S(N)(=O)=O)cc2)nc1-c1ccc(Br)cc1 [Compound 9d, 2-[3-(4-Bromophenyl)-1-(4-sulfamoylphenyl)-1H-pyrazole-4-carbonyl] hydrazine-1-carbothioamide]
T-47D
  inhibition at 10 µM: 7.04%
MCF-7
  inhibition at 10 µM: < 5%
MDA-MB-231/ATCC
  inhibition at 10 µM: < 5%
HS 578T
  inhibition at 10 µM: 6.72%
BT-549
  inhibition at 10 µM: < 5%
MDA-MB-468
  inhibition at 10 µM: < 5%
M14
  inhibition at 10 µM: < 5%
SK-MEL-5
  inhibition at 10 µM: < 5%
MALME-3M
  inhibition at 10 µM: 10.9%
SK-MEL-28
  inhibition at 10 µM: < 5%
LOX IMVI
  inhibition at 10 µM: < 5%
MDA-MB-435
  inhibition at 10 µM: < 5%
UACC-257
  inhibition at 10 µM: < 5%
SK-MEL-2
  inhibition at 10 µM: < 5%
UACC-62
  inhibition at 10 µM: < 5%
DU-145
  inhibition at 10 µM: < 5%
PC-3
  inhibition at 10 µM: < 5%
OVCAR-8
  inhibition at 10 µM: < 5%
IGROV1
  inhibition at 10 µM: 20.2%
OVCAR-3
  inhibition at 10 µM: < 5%
NCI/ADR-RES
  inhibition at 10 µM: < 5%
OVCAR-4
  inhibition at 10 µM: < 5%
ACHN
  inhibition at 10 µM: < 5%
CAKI-1
  inhibition at 10 µM: 12.1%
UO-31
  inhibition at 10 µM: 14.7%
RXF 393
  inhibition at 10 µM: < 5%
TK-10
  inhibition at 10 µM: < 5%
786-0
  inhibition at 10 µM: < 5%
A498
  inhibition at 10 µM: < 5%
SN12C
  inhibition at 10 µM: < 5%
KM12
  inhibition at 10 µM: < 5%
COLO 205
  inhibition at 10 µM: < 5%
SW-620
  inhibition at 10 µM: < 5%
HCT-116
  inhibition at 10 µM: < 5%
HCC-2998
  inhibition at 10 µM: < 5%
HT29
  inhibition at 10 µM: < 5%
HCT-15
  inhibition at 10 µM: < 5%
CCRF-CEM
  inhibition at 10 µM: < 5%
MOLT-4
  inhibition at 10 µM: < 5%
RPMI-8226
  inhibition at 10 µM: < 5%
SR
  inhibition at 10 µM: 6.97%
HL-60(TB)
  inhibition at 10 µM: < 5%
K-562
  inhibition at 10 µM: < 5%
hCA XII
  IC50: 1.42 ± 0.053 µM

## CS(=O)(=O)c1ccc(-c2nn(-c3ccc(S(N)(=O)=O)cc3)cc2C(=O)NNC(N)=S)cc1 [Compound 9e, 2-[3-(4-(Methylsulfonyl)phenyl)-1-(4-sulfamoylphenyl)-1H-pyrazole-4-carbonyl] hydrazine-1-carbothioamide]
T-47D
  inhibition at 10 µM: < 5%
MCF-7
  inhibition at 10 µM: < 5%
MDA-MB-231/ATCC
  inhibition at 10 µM: < 5%
HS 578T
  inhibition at 10 µM: 7.37%
BT-549
  inhibition at 10 µM: < 5%
MDA-MB-468
  inhibition at 10 µM: 7.21%
M14
  inhibition at 10 µM: < 5%
SK-MEL-5
  inhibition at 10 µM: < 5%
MALME-3M
  inhibition at 10 µM: < 5%
SK-MEL-28
  inhibition at 10 µM: < 5%
LOX IMVI
  inhibition at 10 µM: < 5%
MDA-MB-435
  inhibition at 10 µM: < 5%
UACC-257
  inhibition at 10 µM: 7%
SK-MEL-2
  inhibition at 10 µM: < 5%
UACC-62
  inhibition at 10 µM: 7.82%
DU-145
  inhibition at 10 µM: < 5%
PC-3
  inhibition at 10 µM: < 5%
OVCAR-8
  inhibition at 10 µM: < 5%
IGROV1
  inhibition at 10 µM: < 5%
OVCAR-3
  inhibition at 10 µM: < 5%
NCI/ADR-RES
  inhibition at 10 µM: < 5%
OVCAR-4
  inhibition at 10 µM: < 5%
ACHN
  inhibition at 10 µM: < 5%
CAKI-1
  inhibition at 10 µM: 9.93%
UO-31
  inhibition at 10 µM: 5.48%
RXF 393
  inhibition at 10 µM: < 5%
TK-10
  inhibition at 10 µM: < 5%
786-0
  inhibition at 10 µM: < 5%
A498
  inhibition at 10 µM: < 5%
SN12C
  inhibition at 10 µM: < 5%
KM12
  inhibition at 10 µM: < 5%
COLO 205
  inhibition at 10 µM: < 5%
SW-620
  inhibition at 10 µM: < 5%
HCT-116
  inhibition at 10 µM: < 5%
HCC-2998
  inhibition at 10 µM: < 5%
HT29
  inhibition at 10 µM: < 5%
HCT-15
  inhibition at 10 µM: < 5%
CCRF-CEM
  inhibition at 10 µM: < 5%
MOLT-4
  inhibition at 10 µM: < 5%
RPMI-8226
  inhibition at 10 µM: < 5%
SR
  inhibition at 10 µM: < 5%
HL-60(TB)
  inhibition at 10 µM: < 5%
K-562
  inhibition at 10 µM: < 5%
hCA XII
  IC50: 0.929 ± 0.035 µM
